Values of other authors, collected in patent US6444675B2, “4-alkyl and 4-cycloalkyl derivatives of dihydropyridine NPY antagonists” (Bristol-Myers Squibb Company, priority 2000, dated 2002).

Experiments:
[1] = tested on: NPY-induced contractions in guinea pig basilar artery
[2] = target: T1, I-125 Bolton-Hunter labeled NPY in human neuroblastoma cells (SK-N-MC) (Homo sapiens, UniProt P25929)
T1 construct: displaces I-125 Bolton-Hunter labeled NPY in human neuroblastoma cells (SK-N-MC); host or cells: SK-N-MC human neuroblastoma cells (endogenous receptor)
T1 sequence (P25929 1-384): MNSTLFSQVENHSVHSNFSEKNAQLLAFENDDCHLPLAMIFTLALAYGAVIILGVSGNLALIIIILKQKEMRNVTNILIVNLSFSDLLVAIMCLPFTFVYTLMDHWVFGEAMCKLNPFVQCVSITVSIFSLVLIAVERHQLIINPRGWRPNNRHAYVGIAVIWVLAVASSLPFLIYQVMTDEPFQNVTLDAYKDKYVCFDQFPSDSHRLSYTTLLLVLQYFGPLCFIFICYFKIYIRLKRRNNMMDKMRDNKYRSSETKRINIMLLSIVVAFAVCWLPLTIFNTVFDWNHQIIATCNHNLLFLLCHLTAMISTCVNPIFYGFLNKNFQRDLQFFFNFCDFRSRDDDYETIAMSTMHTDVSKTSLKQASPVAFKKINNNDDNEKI

[3] = tested on: NPY-induced increase in intracellular Ca++ in SK-N-MC cells
[4] = tested on: NPY-induced pressor response; settings: pithed rat
[5] = target: T2, I-125 labeled NPY and PYY in human neuroblastoma cells (Homo sapiens, UniProt P25929)
T2 construct: displacing I-125 labeled NPY and PYY in human neuroblastoma cells; endogenous receptor
T2 sequence (P25929 1-384): T1 sequence (P25929 1-384)

[6] = tested on: NPY-related increases in diastolic blood pressure; settings: anesthetized guinea pig model

In the case of O=P(O)(O)OC1[C@H](OP(=O)(O)O)[C@H](O)C(O)[C@H](O)[C@H]1OP(=O)(O)O (stereo partly drawn) [D-Myo-inositol-1,2,6-triphosphate], the “antagonism of NPY-induced contractions” value [1] is given as “potent but non-competitive antagonist”.

In the case of NC(N)=NCCC[C@@H](NC(=O)C(c1ccccc1)c1ccccc1)C(=O)NCc1ccc(O)cc1 [BIBP 3226], the “displacement of I-125 Bolton-Hunter labeled NPY” value [2] is given as “displaces”, the “antagonism of NPY-induced increase in intracellular Ca++” value [3] is given as “antagonized” and the “antagonism of NPY-induced pressor response” value [4] is given as “antagonizing”.

In the case of CN(C)CC1CCC(CN=C(N)c2ccc(C[C@@H](NC(=O)[C@@H](Cc3ccccc3)NS(=O)(=O)c3ccc4ccccc4c3)C(=O)N3CCCC3)cc2)CC1 (stereo partly drawn) [SR 120819A], the “displacement of I-125 labeled NPY and PYY” value [5] is listed as “displacing” and the “antagonism of NPY-related increases in diastolic blood pressure” value [6] is listed as “antagonized”.
